In patent US20040072222A1, “Peptide analogues of myelin basic protein epitopes in the treatment of experimental autoimmune encephalomyelitis (eae) and multiple sclerosis (ms)” (priority 2003, published 2004):
“Also recorded” adds a separate entry of the source. Like-named read-outs stand apart in the source and are kept apart here. Where no end group is shown, it is not given here.

Tests used:
EAE in Lewis rats [1] = experiment: Induction-inhibition and assessment of EAE (clinical score); format: in vivo; conditions: for inhibition of MBP72-85-induced EAE on co-injection: analogue 500 μg co-injected with MBP72-85 25 μg, FIG. 2/3; for inhibition of MBP72-85-induced EAE (clinical signs) on co-injection: co-injected with MBP72-85, Lewis rats; for induction of EAE: injected subcutaneously in Lewis rats; for peak clinical score, day following the initial injection / recovery from EAE: injected subcutaneously in Lewis rats (section B2)
EAE in Lewis rats [2] = conditions: cited from earlier work
[3] = test system: human peripheral blood T cells; experiment: Activation and proliferation of human peripheral blood T cells; format: cell-based; conditions: for effect on human T cell activation and proliferation: agonist peptides, linear vs cyclic; for biological activity in human peripheral blood T cells relative to linear analogue: compared with linear MBP72-85 / Ala81MBP72-85; for reversal of agonist effect on human T cell activation and proliferation: co-culturing of the cells with antagonist peptide
[4] = test system: demyelination and inflammation in the spinal cord; experiment: Histopathological examination of spinal cord sections (Luxol fast blue / Nuclear Fast Red); format: in vivo, Lewis rats; conditions: for spinal cord demyelination and inflammation on co-immunization with MBP72-85: day 15 after immunization

## Val-His-Phe-Phe-Arg^91-Asn-Ile-Val-Thr-Ala^96-Arg-Thr-Pro [[Arg^91,Ala^96]MBP87-99]
EAE in Lewis rats [1]
  inhibition of MBP72-85-induced EAE on co-injection: completely prevented
  inhibition of MBP72-85-induced EAE (clinical signs) on co-injection: completely prevented

## Gln^1-Lys^2-Ser^3-Gln^4-Arg^5-Ser^6-Gln^7-Asp^8-Glu^9-Asn^10-Pro^11-Val^12-NH2 [c-MBP72-85]
EAE in Lewis rats [1]
  induction of EAE: induce EAE
  peak clinical score, day following the initial injection: 15 days
  recovery from EAE: eventual complete recovery in all animals
EAE in Lewis rats [1]; listed as 1
  induction of EAE: comparable with that of linear agonist
EAE in Lewis rats [2]; background, literature
  induction of EAE: comparable potency to MBP72-85
[3]
  effect on human T cell activation and proliferation: comparable effect
  biological activity in human peripheral blood T cells relative to linear analogue: comparable

## QKSQRSQDENPV [MBP72-85, reference compound]
EAE in Lewis rats [1]; 25 μg peptide
  complete recovery in all animals: ≤ 18 days
  peak clinical score, day after the initial injection: 13 days
EAE in Lewis rats [1]
  induction of EAE: induced an acute monophasic disease; also recorded: induce EAE
  peak clinical score, day following the initial injection: 15 days
  recovery from EAE: eventual complete recovery in all animals
EAE in Lewis rats [2]; background, literature
  induction of EAE: induce EAE
[4]; day 15 / peak of disease
  spinal cord histopathology after immunization with the peptide alone: extensive perivascular and parenchymal inflammation; also recorded: multiple perivascular infiltrates
[3]
  effect on human T cell activation and proliferation: comparable effect

## Gln^1-Lys^2-Ser^3-Gln^4-Arg^5-Ser^6-Gln^7-Ala^8-Glu^9-Asn^10-Pro^11-Val^12-NH2 [c-Ala^81MBP72-85]
EAE in Lewis rats [1]
  inhibition of MBP72-85-induced EAE (clinical signs) on co-injection: completely prevented
[4]
  spinal cord demyelination and inflammation on co-immunization with MBP72-85: completely prevented
[3]
  reversal of agonist effect on human T cell activation and proliferation: completely reversed
  biological activity in human peripheral blood T cells relative to linear analogue: comparable

## Gln-Lys-Ser-Gln-Arg-Ser-Gln-Ala^81-GluAsn-Pro-Val [Ala^81MBP72-85]
EAE in Lewis rats [1]; co-injection with the inducing cyclic analogue
  suppression of EAE induced by cyclic analogue on co-injection: completely suppressed
EAE in Lewis rats [2]; Tselios et al 1999
  prevention of clinical and histopathological manifestations of disease induced by c-MBP72-85: prevented
EAE in Lewis rats [2]; background, literature
  prevention of the induction of EAE by parent peptide MBP72-85: prevented the induction of EAE
[4]
  spinal cord demyelination and inflammation on co-immunization with MBP72-85: complete absence of inflammation and demyelination
[3]
  reversal of agonist effect on human T cell activation and proliferation: completely reversed

## Val^87-His-Phe-Phe-Arg^91-Asn-Ile-Val-Thr-Ala^96-Arg-Thr-Pro^99 [cyclo-(87, 99)[Arg^91,Ala^96]MBP87-99]
EAE in Lewis rats [1]
  inhibition of MBP72-85-induced EAE on co-injection: strong inhibitor
  inhibition of MBP72-85-induced EAE (clinical signs) on co-injection: completely prevented

## Val-His-Phe-Phe-Lys^91-Asn-Ile-Val-Thr-Ala^96-Arg-Thr-Pro^99 [cyclo-(91, 99) [Ala^96] MBP87-99]
EAE in Lewis rats [1]
  inhibition of MBP72-85-induced EAE on co-injection: low inhibitory activity
